Experimental data as given in publication PMC8126888 (RSC Medicinal Chemistry, 2020).
Like-named read-outs stand apart in the source and are kept apart here.

Key:
[1] = system: L. donovani MHOM/ET/67/L82 intracellular amastigotes; conditions: read-out: L. donovani MHOM/ET/67/L82 intracellular amastigotes IC50
[2] = system: primary peritoneal mouse macrophages (PMM); experiment: Cytotoxicity to PMM (microscopic scoring within susceptibility assay)
[3] = system: Leishmania infantum MHOM/MA(BE)/67/ITMAP263 intracellular amastigotes; conditions: read-out: L. infantum MHOM/MA(BE)/67/ITMAP263 intracellular amastigotes IC50
[4] = system: primary peritoneal mouse macrophages (PMM); conditions: PMM IC50 / L. infantum IC50
MRC-5SV2 cells = experiment: Cytotoxicity assay on MRC-5SV2 cells (resazurin)
in vitro [5] = conditions: human
[6] = system: Trypanosoma cruzi, Tulahuen CL2, beta-galactosidase strain; experiment: microbe, parasite or virus in culture; conditions: MRC5, read-out: T. cruzi Tulahuen C4 (LacZ) IC50
in vitro [7] = conditions: PAMPA
physchem = conditions: HPLC, Ascentis Express RP Amide column, pH 7.4, eLogD
in vitro [8] = conditions: Swiss, mouse
in vitro [9] = conditions: human, microsomes, pH 7.4, HLM CLint, human liver microsomes
in vitro [10] = conditions: mouse, microsomes, pH 7.4, MLM CLint, mouse liver microsomes
[11] = system: Leishmania infantum MHOM/MA(BE)/67/ITMAP263 intracellular amastigotes; experiment: microbe, parasite or virus in culture; conditions: Macrophage, in Mus musculus
in vitro [12] = conditions: human, HFF-1 cells
in vitro [13] = conditions: human, HepG2 cells
in vitro [14] = conditions: PAMPA; remark: listed apart in the source
[15] = system: primary peritoneal mouse macrophages (PMM); experiment: cells; conditions: Macrophage, read-out: PMM IC50
[16] = read-out: L. Inf. pIC50, from L. infantum intracellular amastigote IC50 (converted)
[17] = read-out: L. infantum MHOM/MA(BE)/67/ITMAP263 intracellular amastigotes IC50, intracellular amastigotes

SMILES	IC50 [1]	IC50 [2]	IC50 [3]	SI (vs PMM) [4]	CC50 (MRC-5SV2 cells)	CC50 at 3 days (in vitro [5])	IC50 [6]	Papp (in vitro [7])	chromatographic logD (physchem)	IC50 (in vitro [8])	microsomal CLint at 0.5 μM (in vitro [9])	microsomal CLint at 0.5 μM (in vitro [10])	IC50 [11, 16]	IC50 ([11]; read-out: L. infantum MHOM/MA(BE)/67/ITMAP263 intracellular amastigotes IC50)	CC50 (in vitro [12])	CC50 (in vitro [13])	Papp (in vitro [14])	chromatographic logD (physchem; experimental)	IC50 [15]	IC50 [11, 17]
COc1ccc(S(=O)(=O)N(C)C)cc1NC(=O)Cn1c(=O)oc2ccccc21 [Compound Z15399918]	> 32 µM	> 32 µM	> 32 µM	1	> 32 µM															
CN(C)S(=O)(=O)c1cccc(NC(=O)CN2CCCc3ccccc32)c1 [Compound Z46159369]	> 32 µM	> 32 µM	> 32 µM	1	> 32 µM															
COc1ccc(OC)c(S(=O)(=O)NCc2ccccc2)c1 [DNDI0003365408]				1		> 64 µM	> 64 µM	16.8 ×10⁻⁶ cm/s	2.8	> 64 µM	126 µL/min/mg	1250 µL/min/mg	> 64 µM	> 64 µM						
COc1ccc(OC)c(S(=O)(=O)N(Cc2ccc(F)cc2)Cc2ncccn2)c1 [DNDI0003370419]						> 64 µM	38.8 µM				115 µL/min/mg	844 µL/min/mg	13.8 µM		19.1 µM	> 64 µM	25.1 ×10⁻⁶ cm/s	3.4	> 64 µM	13.8 µM
COc1ccc(OC)c(S(=O)(=O)N(Cc2ccc(F)cc2)Cc2oc(C)nc2C)c1 [DNDI0003370420]						> 64 µM	24.9 µM				376 µL/min/mg	2280 µL/min/mg	2.34 µM		1.24 µM	> 64 µM	46.4 ×10⁻⁶ cm/s	3.8	> 64 µM	2.34 µM
COc1ccc(C#N)cc1S(=O)(=O)N(Cc1ccc(F)cc1)Cc1oc(C)nc1C [DNDI0003370421]						49.1 µM	26.1 µM				392 µL/min/mg	721 µL/min/mg	7.94 µM		1.91 µM	> 64 µM	14.8 ×10⁻⁶ cm/s	3.7	> 64 µM	7.89 µM
COc1ccc(OC)c(S(=O)(=O)N2CCC(c3ccccc3)CC2)c1 [DNDI0003370422]						> 64 µM	16.9 µM				1610 µL/min/mg	664 µL/min/mg	> 64 µM		4.56 µM	63.9 µM	6.45 ×10⁻⁶ cm/s	4.2	> 64 µM	> 64 µM
CNc1ncccc1S(=O)(=O)N(Cc1ccc(F)cc1)Cc1ccc(F)cc1 [DNDI0003371162]						> 64 µM	14.5 µM				401 µL/min/mg	984 µL/min/mg	3.55 µM		> 64 µM	16.9 µM	1.61 ×10⁻⁶ cm/s	4.5	> 64 µM	3.54 µM
Nc1ncccc1S(=O)(=O)N(Cc1ccc(F)cc1)Cc1ccc(F)cc1 [DNDI0003371163]						> 64 µM	42 µM				164 µL/min/mg	447 µL/min/mg	> 64 µM		52.2 µM	> 64 µM	2.18 ×10⁻⁶ cm/s	4.2	> 64 µM	> 64 µM
COc1ccc(S(C)(=O)=O)cc1S(=O)(=O)N(Cc1ccc(F)cc1)Cc1ccc(F)cc1 [DNDI0003371164]						> 64 µM	22 µM				296 µL/min/mg		1.29 µM		24.3 µM	41.7 µM	2.57 ×10⁻⁶ cm/s		> 64 µM	1.28 µM
O=c1[nH]cccc1S(=O)(=O)N(Cc1ccc(F)cc1)Cc1ccc(F)cc1 [DNDI0003371165]						> 64 µM	42.3 µM				44 µL/min/mg	218 µL/min/mg	> 64 µM		23.2 µM	> 64 µM	23.6 ×10⁻⁶ cm/s	3.8	> 64 µM	> 64 µM
[2H]C([2H])([2H])Oc1ncccc1S(=O)(=O)N(Cc1ccc(F)cc1)Cc1ccc(F)cc1 [DNDI0003371166]						> 64 µM	20.8 µM				14 µL/min/mg	123 µL/min/mg	32.4 µM		41.8 µM	18.9 µM	4.95 ×10⁻⁶ cm/s	3.5	> 64 µM	32.1 µM
O=S(=O)(c1cccnc1OC(F)F)N(Cc1ccc(F)cc1)Cc1ccc(F)cc1 [DNDI0003371167]						> 64 µM	31.2 µM				751 µL/min/mg	3070 µL/min/mg	9.33 µM		> 64 µM	> 64 µM	0.98 ×10⁻⁶ cm/s	4.8	> 64 µM	9.4 µM
Cn1cccc(S(=O)(=O)N(Cc2ccc(F)cc2)Cc2ccc(F)cc2)c1=O [DNDI0003371168]						> 64 µM	24.5 µM				222 µL/min/mg	629 µL/min/mg	20.4 µM		62.5 µM	> 64 µM	18.3 ×10⁻⁶ cm/s	3.8	> 64 µM	20.5 µM
COc1ncccc1S(=O)(=O)N(Cc1ccc(F)cc1)Cc1ccc(F)cc1 [DNDI0003371169]						> 64 µM	44.2 µM				334 µL/min/mg	1170 µL/min/mg	12.9 µM		> 64 µM	> 64 µM	2.56 ×10⁻⁶ cm/s	4.4	> 64 µM	13 µM
COc1ccc(OC)c(S(=O)(=O)N(Cc2ccc(F)cc2)c2ccc(F)cc2)c1 [DNDI0003371170]						> 64 µM	15.1 µM				417 µL/min/mg	703 µL/min/mg	11.2 µM		30.7 µM	23.3 µM	1.83 ×10⁻⁶ cm/s		> 64 µM	11.3 µM
COc1ccc(C#N)cc1S(=O)(=O)N(Cc1ccc(F)cc1)Cc1ccc(C#N)cc1 [DNDI0003371171]						> 64 µM	30.4 µM						33.1 µM		> 64 µM	> 64 µM			> 64 µM	33.2 µM
